Here are results for 4 molecules from paper PMC10861852, “Loss of activation by GABA in vertebrate delta ionotropic glutamate receptors” (Proceedings of the National Academy of Sciences of the …, 2024).

For one assay, the target named is T1, AcaGluD (Acanthaster planci, UniProt A0A8B7XXR5).
T1 sequence (A0A8B7XXR5 24-958): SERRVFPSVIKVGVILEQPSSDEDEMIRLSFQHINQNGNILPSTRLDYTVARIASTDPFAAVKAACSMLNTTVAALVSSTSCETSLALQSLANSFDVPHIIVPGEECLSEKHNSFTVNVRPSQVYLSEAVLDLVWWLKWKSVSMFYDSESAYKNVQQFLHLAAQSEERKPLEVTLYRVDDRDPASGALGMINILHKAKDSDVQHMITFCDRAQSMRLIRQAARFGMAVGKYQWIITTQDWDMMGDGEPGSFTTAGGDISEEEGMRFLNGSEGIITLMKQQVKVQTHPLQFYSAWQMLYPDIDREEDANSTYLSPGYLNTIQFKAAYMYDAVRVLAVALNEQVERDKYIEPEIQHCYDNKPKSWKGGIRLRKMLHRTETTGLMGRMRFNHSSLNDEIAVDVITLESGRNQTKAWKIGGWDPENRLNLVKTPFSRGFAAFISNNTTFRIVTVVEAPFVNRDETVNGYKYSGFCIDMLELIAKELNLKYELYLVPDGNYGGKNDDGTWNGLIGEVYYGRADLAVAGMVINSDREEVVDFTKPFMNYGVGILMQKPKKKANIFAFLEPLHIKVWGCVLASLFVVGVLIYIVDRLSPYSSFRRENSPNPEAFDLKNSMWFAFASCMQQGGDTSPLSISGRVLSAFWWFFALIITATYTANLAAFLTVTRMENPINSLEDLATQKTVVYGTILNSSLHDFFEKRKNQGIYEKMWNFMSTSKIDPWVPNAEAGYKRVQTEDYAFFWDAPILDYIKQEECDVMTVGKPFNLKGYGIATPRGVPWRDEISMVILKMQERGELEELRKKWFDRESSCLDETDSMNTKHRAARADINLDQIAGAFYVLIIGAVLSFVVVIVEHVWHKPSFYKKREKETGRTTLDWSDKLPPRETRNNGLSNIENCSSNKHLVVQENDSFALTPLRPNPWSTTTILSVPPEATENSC
The experiment in a line: Two-electrode voltage clamp, ligand-gated currents in oocytes. As to conditions: for inhibition of GABA-gated current: coapplied with ~EC30 GABA concentration. It counts as cell-based.

In the next assay the target is T2, WT RatGluD2 (Rattus norvegicus, UniProt Q63226).
T2 construct: expressed in transfected cells; host or cells: Xenopus laevis oocytes injected with mRNA
T2 sequence (Q63226 24-1007): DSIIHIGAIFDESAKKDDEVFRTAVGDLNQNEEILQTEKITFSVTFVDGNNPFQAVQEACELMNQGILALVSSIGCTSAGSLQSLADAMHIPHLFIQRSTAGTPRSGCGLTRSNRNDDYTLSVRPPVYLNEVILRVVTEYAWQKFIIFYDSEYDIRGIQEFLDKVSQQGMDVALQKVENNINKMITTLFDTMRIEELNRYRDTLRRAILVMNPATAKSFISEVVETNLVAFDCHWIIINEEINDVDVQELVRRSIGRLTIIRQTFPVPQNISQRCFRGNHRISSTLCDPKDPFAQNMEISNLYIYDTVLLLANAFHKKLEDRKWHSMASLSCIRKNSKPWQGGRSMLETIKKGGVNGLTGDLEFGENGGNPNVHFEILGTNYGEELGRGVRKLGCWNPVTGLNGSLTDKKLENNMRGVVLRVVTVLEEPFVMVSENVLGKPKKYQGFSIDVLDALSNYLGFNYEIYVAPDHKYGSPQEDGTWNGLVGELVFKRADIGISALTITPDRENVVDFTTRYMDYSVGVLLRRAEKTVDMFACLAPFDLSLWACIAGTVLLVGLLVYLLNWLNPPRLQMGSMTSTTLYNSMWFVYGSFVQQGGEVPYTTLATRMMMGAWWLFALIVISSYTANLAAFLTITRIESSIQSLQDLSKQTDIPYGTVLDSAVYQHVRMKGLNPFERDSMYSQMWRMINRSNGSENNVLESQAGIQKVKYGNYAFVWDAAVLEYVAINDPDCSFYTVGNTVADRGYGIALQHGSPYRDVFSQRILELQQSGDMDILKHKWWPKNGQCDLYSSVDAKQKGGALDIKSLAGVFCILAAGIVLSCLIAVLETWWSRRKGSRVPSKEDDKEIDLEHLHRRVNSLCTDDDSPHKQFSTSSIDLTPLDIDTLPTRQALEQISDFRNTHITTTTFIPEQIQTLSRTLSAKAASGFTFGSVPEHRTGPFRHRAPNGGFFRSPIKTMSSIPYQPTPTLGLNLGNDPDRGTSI
Kind of assay: Two-electrode voltage clamp in oocytes. It counts as cell-based. To be noted: n = 4.

Another assay has as its target T3, RatGluD2^Lc (Rattus norvegicus, UniProt Q63226, A654T).
T3 sequence (Q63226 24-1007 A654T): T2 sequence (Q63226 24-1007) with A631T
The experiment in a line: Two-electrode voltage clamp, inhibition of constitutive current in oocytes. As to conditions: each n = 4.

For a further assay, the target named is T4, RatGluD2^5x (Rattus norvegicus, UniProt Q63226, A686S/K694R/N720P/P806D/Y613F).
T4 construct: expressed in transfected cells; host or cells: Xenopus laevis oocytes injected with mRNA
T4 sequence (Q63226 24-1007 Y613F/A686S/K694R/N720P/P806D): T2 sequence (Q63226 24-1007) with Y590F, A663S, K671R, N697P, P783D
Kind of assay: Two-electrode voltage clamp, responses to ligands in mutant-expressing oocytes. It counts as cell-based. As to conditions: ligands 30 mM. The text has this:
(§1) If the 10 mutations discussed above drove the loss of function in vertebrate delta iGluRs, one might expect that the latter could be “reawakened” via active invertebrate delta iGluR-like mutations here. We therefore engineered mutant RatGluD2 iGluRs to contain at these positions the equivalent residues from starfish delta iGluRs. These mutants were RatGluD2^5x, containing Y613F, A686S, K694R, N720P, and P806D substitutions (pink in Fig. 6A), and RatGluD2^9x, additionally containing N763K, D753Q, Q786M, and R787V (cyan in Fig. 6A).
(§2) Fig. 6. AcaGluD-like mutations alter RatGluD2 receptor function. (A) D-serine bound RatGluD2 from X-ray structure PDB:2v3u ([13]). Selected amino acid residues are indicated, colored, shown as sticks, and labeled 5×, 9×, 10×, and/or Lc according to the multiple mutants they were incorporated into. 10× mutant included 10×, 9×, and 5× positions. 9× included 9× and 5×. 5× included only 5×. […] (B–E) Example current responses to different neurotransmitter ligands (30 mM) and to pore blocker pentamidine (Pent, 100 μM) in oocytes expressing indicated RatGluD2 mutants. The dashed line indicates zero current baseline. (F) Individual (dots) and mean (columns) responses to ligands in oocytes expressing indicated RatGluD2 mutants (n = 4 to 5).

The next assay addresses T5, RatGluD2^9x (Rattus norvegicus, UniProt Q63226, A686S/D753Q/K694R/N720P/N763K/P806D/Q786M/R787V/Y613F).
T5 construct: expressed in transfected cells; host or cells: Xenopus laevis oocytes injected with mRNA
T5 sequence (Q63226 24-1007 Y613F/A686S/K694R/N720P/D753Q/N763K/Q786M/R787V/P806D): T2 sequence (Q63226 24-1007) with Y590F, A663S, K671R, N697P, D730Q, N740K, Q763M, R764V, P783D
The description is as above. In kind it is cell-based. To be noted: ligands 30 mM.
From the text: as §1, §2

Where a chain is given by its changes, count along the chain named.

From the text for RatGluD2^Lc: (C) Left panels, example recordings of oocytes expressing A654T lurcher-mutant RatGluD2 (RatGluD2Lc) in response to indicated AMPA iGluR antagonists and D-serine. Dashed line, zero current baseline. Right panel, % inhibition at different oocytes (dots) and resulting means (columns).

Turning to `C[C@@H](NCc1cc(Br)cc2[nH]c(=O)c(=O)[nH]c12)P(=O)(O)O` [CGP-78608], the “inhibition of GABA-gated current” value against AcaGluD (100 μM) was 9 ± 3%.

With `N#Cc1cc2[nH]c(=O)c(=O)[nH]c2cc1[N+](=O)[O-]` [CNQX], the “currents elicited when applied alone” value on AcaGluD (100 μM, applied alone) is listed as “elicited no currents”. In addition, on AcaGluD (100 μM), the “inhibition of GABA-gated current” value amounted to 81 ± 4%. Further, at AcaGluD (100 μM, n = 5), the “enhancement of glutamate-gated currents” value was “no effect”. Also, on WT RatGluD2, the “effect on oocytes expressing WT RatGluD2” value was “no effect”. Also, the “inhibition of constitutive currents” value on RatGluD2^Lc came to 10 ± 0.2%.

In the case of `O=C(O)c1cc(=O)c2c(Cl)cc(Cl)cc2[nH]1` [5,7-dichlorokynurenic acid], the “inhibition of GABA-gated current” value against AcaGluD (100 μM) is 11 ± 5%.

Regarding `N[C@@H](CCC(=O)O)C(=O)O` [glutamate], the EC50 at AcaGluD (0 Ca2+, n = 4) is approximately 30 mM. Also, the “maximum ligand-gated current amplitude” value at AcaGluD (in the presence of 1.8 mM Ca2+) is given as 5.8 ± 0.6 µA; at AcaGluD (nominally Ca2+-free solutions), 0.28 ± 0.02 µA. Further, the “current response to ligand” value at RatGluD2^5x and on RatGluD2^9x was “no responses” each time.
